Source: PubChem BioAssay (NCI)
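Where inhibition never reached the appropriate level, the endpoint shown equals the highest concentration tested. Otherwise, values were interpolated linearly from a five-concentration, 48-hour dose response in 96-well plates. GI50 = concentration required for 50% inhibition of growth. TGI: total growth inhibition.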

How the values were obtained:
Assay in all cases: NCI-60 cell line screen, 48 h
[1] = system: HCC-2998 colon
[2] = system: KM12 colon
[3] = system: HT29 colon
[4] = system: NCI-H460 lung
[5] = system: CCRF-CEM leukemia
[6] = system: HOP-92 NSCLC
[7] = system: OVCAR-8 ovarian
[8] = system: U251 CNS
[9] = system: BT-549 breast
[10] = system: HS 578T breast
[11] = system: A549 NSCLC
[12] = system: SNB-75 CNS
[13] = system: SF-268 CNS
[14] = system: EKVX NSCLC
[15] = system: UACC-62 melanoma
[16] = system: PC-3 prostate
[17] = system: 786-0 renal
[18] = system: SN12C renal
[19] = system: LOX IMVI melanoma
[20] = system: RPMI-8226 leukemia
[21] = system: HCT-15 colon
[22] = system: MOLT-4 leukemia
[23] = system: NCI/ADR-RES ovarian
[24] = system: HCT-116 colon
[25] = system: MCF7 breast
[26] = system: COLO 205 colon
[27] = system: SF-539 CNS
[28] = system: SK-OV-3 ovarian
[29] = system: HL-60(TB) leukemia
[30] = system: MALME-3M melanoma
[31] = system: OVCAR-4 ovarian
[32] = system: UACC-257 melanoma
[33] = system: MDA-MB-435
[34] = system: A498 renal
[35] = system: SF-295 CNS
[36] = system: SR leukemia
[37] = system: OVCAR-3 ovarian
[38] = system: TK-10 renal
[39] = system: NCI-H226 lung
[40] = system: T-47D breast
[41] = system: SK-MEL-2 melanoma
[42] = system: SNB-19 CNS
[43] = system: NCI-H522 lung
[44] = system: UO-31 renal
[45] = system: ACHN renal
[46] = system: HOP-62 NSCLC
[47] = system: RXF 393 renal
[48] = system: SK-MEL-28 melanoma
[49] = system: M14 melanoma
[50] = system: DU-145 prostate
[51] = system: IGROV1 ovarian
[52] = system: K-562 leukemia
[53] = system: NCI-H23 lung
[54] = system: CAKI-1 renal
[55] = system: SK-MEL-5 melanoma
[56] = system: MDA-MB-231 breast

SMILES: COc1ccc(C(O)c2cc3c(N)c(C(=O)Nc4cccc(OC)c4)sc3nc2C)cc1 (configuration not stated)
- GI50 [1]: 0.871 µM
- TGI [1]: 1.63 µM
- GI50 [2]: 1.03 µM
- TGI [2]: 2.41 µM
- GI50 [3]: 1.36 µM
- TGI [3]: 3.7 µM
- GI50 [4]: 1.97 µM
- TGI [4]: > 50 µM
- GI50 [5]: 1.31 µM
- TGI [5]: 4.64 µM
- GI50 [6]: > 50 µM
- TGI [6]: > 50 µM
- GI50 [7]: 1.57 µM
- TGI [7]: > 50 µM
- GI50 [8]: 1.34 µM
- TGI [8]: 7.37 µM
- GI50 [9]: 1.23 µM
- TGI [9]: 3.22 µM
- GI50 [10]: 1.65 µM
- TGI [10]: 4.67 µM
- GI50 [11]: 5.46 µM
- TGI [11]: > 50 µM
- GI50 [12]: 12.2 µM
- TGI [12]: > 50 µM
- GI50 [13]: 1.77 µM
- TGI [13]: 37.9 µM
- GI50 [14]: 1.6 µM
- TGI [14]: > 50 µM
- GI50 [15]: 1.16 µM
- TGI [15]: 3.07 µM
- GI50 [16]: 1.15 µM
- TGI [16]: 3.04 µM
- GI50 [17]: 1.14 µM
- TGI [17]: 2.79 µM
- GI50 [18]: 1.24 µM
- TGI [18]: 3.38 µM
- GI50 [19]: 0.879 µM
- TGI [19]: 1.64 µM
- GI50 [20]: 0.174 µM
- TGI [20]: 0.809 µM
- GI50 [21]: 1 µM
- TGI [21]: 2.51 µM
- GI50 [22]: 1.43 µM
- TGI [22]: 4.59 µM
- GI50 [23]: 1.38 µM
- TGI [23]: 3.96 µM
- GI50 [24]: 0.242 µM
- TGI [24]: 0.953 µM
- GI50 [25]: 0.289 µM
- TGI [25]: > 50 µM
- GI50 [26]: 1.75 µM
- TGI [26]: > 50 µM
- GI50 [27]: 1.26 µM
- TGI [27]: 3.03 µM
- GI50 [28]: 11.5 µM
- TGI [28]: > 50 µM
- GI50 [29]: 1.35 µM
- TGI [29]: > 50 µM
- GI50 [30]: 1.91 µM
- TGI [30]: 28.9 µM
- GI50 [31]: 2.17 µM
- TGI [31]: > 50 µM
- GI50 [32]: 1.74 µM
- TGI [32]: > 50 µM
- GI50 [33]: 1.11 µM
- TGI [33]: 2.18 µM
- GI50 [34]: > 50 µM
- TGI [34]: > 50 µM
- GI50 [35]: 1.42 µM
- TGI [35]: 4.5 µM
- GI50 [36]: 0.301 µM
- TGI [36]: 7.51 µM
- GI50 [37]: 1.26 µM
- TGI [37]: 3.23 µM
- GI50 [38]: 5.99 µM
- TGI [38]: > 50 µM
- GI50 [39]: 4.01 µM
- TGI [39]: 36.8 µM
- GI50 [40]: 3.83 µM
- TGI [40]: > 50 µM
- GI50 [41]: 49.8 µM
- TGI [41]: > 50 µM
- GI50 [42]: 1.99 µM
- TGI [42]: > 50 µM
- GI50 [43]: 1.43 µM
- TGI [43]: 4.94 µM
- GI50 [44]: 0.838 µM
- TGI [44]: 1.72 µM
- GI50 [45]: 1.21 µM
- TGI [45]: 3.15 µM
- GI50 [46]: 1.94 µM
- TGI [46]: > 50 µM
- GI50 [47]: 1.01 µM
- TGI [47]: 2.31 µM
- GI50 [48]: 1.58 µM
- TGI [48]: 4.94 µM
- GI50 [49]: 1.28 µM
- TGI [49]: 4.65 µM
- GI50 [50]: 2.07 µM
- TGI [50]: > 50 µM
- GI50 [51]: 1.17 µM
- TGI [51]: 3.46 µM
- GI50 [52]: 1.2 µM
- TGI [52]: 7.2 µM
- GI50 [53]: 1.2 µM
- TGI [53]: 3.29 µM
- GI50 [54]: 1.53 µM
- TGI [54]: 5.27 µM
- GI50 [55]: 1.69 µM
- TGI [55]: 5.42 µM
- GI50 [56]: 1.39 µM
- TGI [56]: 3.97 µM
